Test results: patent US11771086B2, “Pest control composition including novel iminopyridine derivative” (priority 2012, dated 2023)

Experiments:
[1] = system: Nilaparvata lugens resistant population I; assay: Reference Test Example 19 Pest control test of Nilaparvata lugens, resistant population I (soil drench); type: in vivo; conditions: for Insecticidal effects against Nilaparvata lugens (death rate %), Resistant population I: soil drench, six days
Experimental: (§1) Three days after the treatment, ten second instar larvae of Nilaparvata lugens, which had been collected outdoors and proliferated indoors, were each released to the rice seedling. […] Test in duplicate.
(§2) Furthermore, for comparison, the test against a species of Nilaparvata lugens which is highly susceptible to imidacloprid was performed by the same method as described above, and the results thereof are shown in Table 45. […] Meanwhile, the death rates of imidacloprid at 0.05 mg/seedling were (susceptible species) 100%, (resistant population I) 38% and (resistant population II) 69%, and the insecticidal effect thereof was also low even at a high dose. From the above results, it became obvious that Compound P212 and Compound 1-20 have high insecticidal effects even against Nilaparvata lugens resistance against imidacloprid.
(§3) Further, for the origin of test pests, bugs collected outdoors from the Kumamoto prefecture (I) in 2007 and from the Fukuoka prefecture (II) in 2005 as resistant population of Nilaparvata lugens, and bugs collected from the Kagoshima prefecture and then successively reared indoors for a long time as the imidacloprid susceptible population of Nilaparvata lugens were used.

Spodoptera litura = assay: Reference Test Example 2 Pest control test of Spodoptera litura (foliar treatment, single agent); type: in vivo; conditions: 72 h
Source text: After an air drying process, third instar larvae were released thereto. […] Test in duplicate.

Laodelphax striatella [2] = assay: whole plant or invertebrate; type: in vivo
Experimental: After an air drying process, second instar larvae were released thereto. […] The test was performed in duplicate.
(§4) Method for Judging Synergistic Effects

[3] = system: Nilaparvata lugens susceptible species (highly susceptible to imidacloprid); assay: Reference Test Example 19 Pest control test of Nilaparvata lugens, imidacloprid susceptible species (soil drench); type: in vivo; conditions: for Insecticidal effects against Nilaparvata lugens (death rate %), Susceptible population: soil drench, six days
Experimental: as §1, §2, §3

Aphis gossypii [4] = assay: whole plant or invertebrate; type: in vivo; conditions: Aphis gossypii
Experimental: The test was performed in duplicate.
as §4

Laodelphax striatella [5] = assay: Reference Test Example 18 Pest control test of Laodelphax striatella (wheat seedling root treatment); type: in vivo; conditions: wheat seedling roots treated; four days after release; 20 μg/seedling
Experimental: The drug was absorbed from the roots for 72 hours, and then ten second instar larvae of Laodelphax striatella were each released thereto. […] The test was performed in duplicate.

Nilaparvata lugens = assay: Reference Test Example 5 Pest control test of Nilaparvata lugens (foliar treatment, single agent); type: in vivo; conditions: 144 h
Source text: (§5) After an air drying process, second instar larvae were released thereto. […] Test in duplicate.

Plutella xylostella = assay: Reference Test Example 1 Pest control test of Plutella xylostella (foliar treatment, single agent); type: in vivo
Source text: as §5

Laodelphax striatella [6] = assay: Reference Test Example 4 Pest control test of Laodelphax striatella (foliar treatment, single agent); type: in vivo; conditions: Laodelphax striatellus, 72 h
Source text: as §5

Aphis gossypii [7] = assay: Reference Test Example 3 Pest control test of Aphis gossypii (foliar treatment, single agent); type: in vivo
Experimental: After an air drying process, first instar larvae were released thereto. Thereafter, the larvae were left to stand in a thermostatic chamber (16 hours of light period-8 hours of dark period) at 25° C. […] Test in duplicate. Mortality (%)={number of dead larvae/(number of survived larvae+number of dead larvae)}×100

Sogatella furcifera = assay: Reference Test Example 6 Pest control test of Sogatella furcifera (foliar treatment, single agent); type: in vivo; conditions: 96 h
Source text: as §5

[8] = system: Trigonotylus caelestialium; assay: Reference Test Example 10 Pest control test of Trigonotylus caelestialium (dipping treatment); type: in vivo; conditions: 72 h
Experimental: After an air drying process, the wheat seedling leaves and stems were placed into a glass tube, and two second instar larvae of Trigonotylus coelestialium were released to the same glass tube. After the larvae were released, the tube was lidded to leave the larvae to stand in a thermostatic chamber at 25° C. In order to supply water to the wheat during the test, water was given to the wheat from the bottom of the glass tube. […] Test in triplicate.

[9] = system: Nilaparvata lugens resistant population II; assay: Reference Test Example 19 Pest control test of Nilaparvata lugens, resistant population II (soil drench); type: in vivo; conditions: for Insecticidal effects against Nilaparvata lugens (death rate %), Resistant population II: soil drench, six days
Experimental: as §1, §2, §3

Laodelphax striatella [10] = assay: whole plant or invertebrate; conditions: Laodelphax striatellus, soil, 72 h, soil irrigation
Experimental: After the rice seedling was left to stand for 3 days, second instar larvae were released thereto. Thereafter, the larvae were left to stand in a thermostatic chamber (16 hours of light period-8 hours of dark period) at 25° C. […] The test was performed in duplicate. Mortality of larvae (%)={number of dead larvae/(number of survived larvae+number of dead larvae)}×100
B: 100−(mortality of larvae or adults when treated only with each of imidacloprid, fipronil, chlorantraniliprole, spinosad, clothianidin, dinotefuran, sulfoxaflor, pymetrozine, thiamethoxam, flupyradifurone and cycloxaprid))
as §4
When the mortality against Laodelphax striatella in the case of a mixture with another agent exceeded the theoretical value by the Colby's equation, a synergistic effect was judged to be present.

[11] = system: Frankliniella occidentalis; assay: Reference Test Example 9 Pest control test of Frankliniella occidentalis (foliar treatment, single agent); type: in vivo; conditions: 72 h
Experimental: After an air drying process, first instar larvae were released to the leaf disk. Thereafter, the larvae were left to stand in a thermostatic chamber (16 hours of light period-8 hours of dark period) at 25° C. […] Test in duplicate. Mortality of larvae (%)={number of dead larvae/(number of survived larvae+number of dead larvae)}×100

[12] = type: in vivo; conditions: single agent 0.125 mg/seedling; soil irrigation; seven days after inoculation

With `FC(F)(F)C(=S)/N=c1\ccccn1Cc1ccc(Cl)nc1` [Compound 1-20, N-[1-((6-chloropyridin-3-yl)methyl)pyridin-2(1H)-ylidene]-2,2,2-trifluoroethanethioamide] the “death rates of larvae” value ([1]; resistant population I, 0.005 mg/seedling, six days after the release) was 77%, the “Insecticidal effects against Nilaparvata lugens (death rate %), Resistant population I” value ([1]; throughput 0.005 mg/seedling) was 77% and the “Insecticidal effects against Nilaparvata lugens (death rate %), Resistant population I” value ([1]; throughput 0.01 mg/seedling) was 100%. For the same molecule, the mortality at 500 ppm (Spodoptera litura) was at least 80%, the “Theoretical value by Colby's equation” value (Laodelphax striatella [2]; Laodelphax striatella foliar, single agent 0.625 ppm (other component 0)) was 90% and the mortality at 0.625 ppm (Laodelphax striatella [2]; Laodelphax striatellus, foliar, 72 h, read-out: Mortality of single agent against Laodelphax striatella) was 90%. The “death rates of larvae” value ([3]; susceptible species, 0.005 mg/seedling, six days after the release) was 100%, the “Insecticidal effects against Nilaparvata lugens (death rate %), Susceptible population” value ([3]; throughput 0.005 mg/seedling) was 100% and the “Insecticidal effects against Nilaparvata lugens (death rate %), Susceptible population” value ([3]; throughput 0.01 mg/seedling) was 95%. The mortality at 0.625 ppm (Aphis gossypii [4]; foliar, 72 h, read-out: Mortality of single agent against Aphis gossypii) was 19%, the “Theoretical value by Colby's equation” value (Aphis gossypii [4]; single agent 0.625 ppm (other component 0)) was 19% and the “Laodelphax striatella (Reference Test Example 18), mortality of larvae” value (Laodelphax striatella [5]) was 100%. The mortality at 100 ppm (Nilaparvata lugens) was at least 80%, the mortality at 100 ppm (Plutella xylostella; Plutella xylostella, foliar, 72 h) was at least 80% and the “Plutella xylostella (Reference Test Example 1), mortality of larvae” value (Plutella xylostella; foliar treatment, single agent) was 100%. The mortality at 100 ppm (Laodelphax striatella [6]) was at least 80%, the mortality at 100 ppm (Aphis gossypii [7]; Aphis gossypii, foliar, 72 h) was at least 80% and the “Aphis gossypii (Reference Test Example 3), mortality of larvae” value (Aphis gossypii [7]; foliar treatment, single agent) was 100%. For the same molecule, the mortality at 100 ppm (Sogatella furcifera) was at least 80%, the mortality at 50 ppm [8] was at least 80% and the “death rates of larvae” value ([9]; resistant population II, 0.005 mg/seedling, six days after the release) was 85%. For the same molecule, the “Insecticidal effects against Nilaparvata lugens (death rate %), Resistant population II” value ([9]; throughput 0.005 mg/seedling) was 85%, the “Insecticidal effects against Nilaparvata lugens (death rate %), Resistant population II” value ([9]; throughput 0.01 mg/seedling) was 100% and the mortality at 0.005 mg/seedling (Laodelphax striatella [10]; read-out: Mortality of single agent against Laodelphax striatella, single agent 0.005 mg/Seedling) was 12%. The mortality at 500 ppm [11] was at least 80%.
In the case of `C=CCOC1=NS(=O)(=O)c2ccccc21` [Probenazole], the “Preventive value (rice blast, number of lesions)” value [12] is reported as 96.7 and the mortality at 0.5 mg/seedling (Laodelphax striatella [10]; read-out: Mortality of single agent against Laodelphax striatella, single agent 0.5 mg/Seedling) is reported as 9%.
